Experimental data from patent EP0303028A1, “Method for preparing single chain urokinase” (GRUPPO LEPETIT S.p.A., priority 1987, dated 1989).
Square brackets hold non-standard residues; d marks the D form. Peptide text beside a SMILES is read from it. * marks the point of attachment. pNA = O=[N+]([O-])c1ccc(N*)cc1; pGlu = O=C1CC[C@@H](C(=O)O)N1

Assays:
Experiment in all cases: Kinetics of amidolytic activity on S-2444 (Lineweaver-Burk)
Format in all cases: biochemical
Conditions in all cases: pH 8.8 and 37°C
[1] = biological target: plasmin-activated RSV-A431-scu-PA (recombinant human uPA from RSV-uPA transfected A431 cells) (Homo sapiens, UniProt P00749)
Procedure: (§1) The fibrinolytic assay is carried out by the fibrin plate method (Astrup T., Mullertz S., The fibrin plate method for estimating fibrinolytic activity, Arch Biochem Biophys 1952, 40:346-351). Urokinase reference standard is used to calibrate each assay. Activity is measured in International Units (I.U.) relative to the International Reference Preparation as the primary standard. sc-uPA (cell produced single chain urokinase) fibrinolytic latent activity is determined after activation as follows: plasmin (10 mg) is coupled with CNBr-activated Sepharose (cross-linked agarose) (2.5 ml) using 0.5 M sodium carbonate buffer as the coupling buffer. A 1:10 suspension of plasmin-agarose (0.9 ml) in 0.15 M sodium chloride, 0.05 M sodium phosphate buffer pH 7.4 is mixed with sc-uPA samples (0.1 ml) and gently rotated for 1 h at 20°C. Plasmin-agarose is removed by centrifugation 2 min at 10000 x g and the supernatant tested by the fibrin plate assay. Protein concentrations were measured according to the method of Lowry (Lowry O., Rosebrough H., Parr A., Randall R., Protein measurement with the Folin phenol reagent, J. Biol. Chem. 1951, 193,265-275). Amidolytic assays are performed by measuring the rate of hydrolysis of the synthetic substrate pyro-Glu-Gly-Arg-pNA, S-2444 (Claeson G., Friberger P., Knos M., Eriksson E., Methods for determination of pre-kallikrein in plasma, glandular kallikrein and urokinase, Haemostasis 1978; 7:76-78). Immunoadsorbent-amidolytic assay (IAA) is carried out as described by Corti A., Nolli ML., Cassani G., Differential detection of single-chain and two-chain urokinase type plasminogen activator by a new immunoadsorbent amidolytic assay (IAA), Throm Haemostas 1986, 56:407-10. The assay combines the selectivity of immunoassays with the specificity of enzyme activity assays exploiting both the antigenic and enzymatic properties of the two proteins. tcu-PA and scu-PA are selectively immunoadsorbed on the wells of a microtiter plate coated with the monoclonal antibody 5B4 and tested for enzymatic activity before and after activation by plasmin treatment.
(§2) To determine the kinetic parameters of the amidolytic activity, plasmin-activated u-PA's (4.5 nM) are incubated at different concentrations (0.03 - 0.3 mM) of pyro-Glu-Gly-Arg-p-nitroanilide (S-2444) in 0.1 M Tris Cl (pH 8.8), 50 mM NaCl and 0.1% bovine serum albumin at 37°C. The initial rate of p-nitroaniline release is determined photometrically at 405 nm. The linear increase of absorbance with time for the various concentrations of S-2444 is reported in a Lineweaver-Burk plot from which Km and Vmax are calculated by extrapolation of the curves obtained using a linear regression program.

[2] = biological target: plasmin-activated RSV-CHO-scu-PA (recombinant human uPA from RSV-uPA transfected CHO cells) (Homo sapiens, UniProt P00749)
Procedure: as §1, §2

[3] = biological target: plasmin-activated A431 scu-PA (from untransformed human A431 cells) (Homo sapiens, UniProt P00749)
Procedure: as §1, §2

[4] = biological target: plasmin-activated RSV-LB6-scu-PA (3F11-scu-PA; recombinant human uPA from RSV-uPA transfected murine LB6 cells) (Homo sapiens, UniProt P00749)
Procedure: as §1, §2

[5] = biological target: plasmin-activated BPV-LB6-scu-PA (recombinant human uPA from BPV vector transfected murine LB6 cells) (Homo sapiens, UniProt P00749)
Procedure: as §1, §2

[6] = biological target: plasmin-activated urinary scu-PA (human urine tcu-PA, urokinase) (Homo sapiens, UniProt P00749)
Procedure: as §1, §2

N=C(N)NCCC[C@H](NC(=O)CNC(=O)[C@@H]1CCC(=O)N1)C(=O)Nc1ccc([N+](=O)[O-])cc1 [S-2444, pyro-Glu-Gly-Arg-p-nitroanilide] ([pGlu]-Gly-Arg-pNA)
Km [1]: 76 µM | kcat [1]: 23 s⁻¹ | Km [2]: 76 µM | kcat [2]: 26 s⁻¹ | Km [3]: 72 µM | kcat [3]: 23 s⁻¹ | Km [4]: 69 µM | kcat [4]: 24 s⁻¹ | Km [5]: 78 µM | kcat [5]: 26 s⁻¹ | Km [6]: 80 µM | kcat [6]: 25 s⁻¹
